According to patent US20150004134A1, “TREATMENT OF CANCER WITH HETEROCYCLIC INHIBITORS OF GLUTAMINASE” (Calithera Biosciences, Inc., priority 2012, published 2015):
Where two headings read alike, the source gives them in different places.

System: P493-6 (myc "on") cells
Experiment: Cell Proliferation Assay
Format: cell-based
Description: P493-6 (myc “on”) cells were maintained in growth media (RPMI-1640, 10% FBS, 2 mM glutamine, 100 units/ml Penicillin and 100 μg/ml streptomycin) at 37° C. with 5% CO2. For compound assay, P493-6 cells were plated in 96-well V-bottom plates on the day of compound addition in 50 μl of growth media at a cell density of 200,000 cells/ml (10,000 cells/well). Compounds were serially diluted in 100% DMSO at 200-times the final concentration. Compounds were diluted 100-fold into growth media and then 50 μl of this mixture was added to cell plates making the final concentration of DMSO 0.5%. Cells were incubated with compound for 72 hrs at 37° C. with 5% CO2 and analyzed for antiproliferative effects either by Cell Titer Glo (Promega) or FACS analysis using the Viacount (Millipore) kit on the Guava instrument.

[1] = P493-6, 72 h, read-out: Cell prolif P493 72 h IC50, P493 cells, 72 h
[2] = P493-6, read-out: Cell prolif P493 72 h IC50, P493 cells, 72 h

Compound	IC50 [1]	IC50 [2]
O=C(Cc1ccccc1)Nc1nnc(CCSCCc2nnc(NC(=O)Cc3ccccc3)s2)s1 [Compound 1, N,N′-(5,5′-(thiobis(ethane-2,1-diyl))bis(1,3,4-thiadiazole-5,2-diyl))bis(2-phenylacetamide)]	470 nM	–
O=C(Nc1nnc(CCSCCc2nnc(NC(=O)c3ccccc3)s2)s1)c1ccccc1 [Compound 2]	–	630 nM
COc1ccc(C(=O)Nc2nnc(CCSCCc3nnc(NC(=O)c4ccc(OC)cc4)s3)s2)cc1 [Compound 3]	–	> 50000 nM
CC(C)CC(=O)Nc1nnc(CCSCCc2nnc(NC(=O)CC(C)C)s2)s1 [Compound 4]	> 50000 nM	–
CC(=O)OCC(=O)Nc1nnc(CCSCCc2nnc(NC(=O)COC(C)=O)s2)s1 [Compound 5]	> 50000 nM	–
CN(C(=O)Cc1ccccc1)c1nnc(CCSCCc2nnc(N(C)C(=O)Cc3ccccc3)s2)s1 [Compound 6]	2700 nM	–
CCCC(=O)OCN(C(=O)Cc1ccccc1)c1nnc(CCSCCc2nnc(NC(=O)Cc3ccccc3)s2)s1 [Compound 7]	1000 nM	–
CCCC(=O)OCN(C(=O)Cc1ccccc1)c1nnc(CCSCCc2nnc(N(COC(=O)CCC)C(=O)Cc3ccccc3)s2)s1 [Compound 8]	1600 nM	–
CC(CCc1nnc(NC(=O)Cc2ccccc2)s1)CCc1nnc(NC(=O)Cc2ccccc2)s1 [Compound 9]	> 50000 nM	–
CC(C)(CCc1nnc(NC(=O)Cc2ccccc2)s1)CCc1nnc(NC(=O)Cc2ccccc2)s1 [Compound 10]	> 50000 nM	–
O=C(Cc1ccccc1)Nc1nnc(CCCCCc2nnc(NC(=O)Cc3ccccc3)s2)s1 [Compound 11]	890 nM	–
O=C(CN1CCOCC1)Nc1nnc(CCSCCc2nnc(NC(=O)CN3CCOCC3)s2)s1 [Compound 12]	36000 nM	–
CC(=O)Nc1nnc(CCSCCc2nnc(NC(C)=O)s2)s1 [Compound 13]	–	12000 nM
CC(=O)OCC(C(=O)Nc1nnc(CCSCCc2nnc(NC(=O)C(COC(C)=O)c3ccccc3)s2)s1)c1ccccc1 (stereo not drawn) [Compound 14]	1800 nM	–
CC(C)(C)C(=O)OCN(C(=O)Cc1ccccc1)c1nnc(CCSCCc2nnc(NC(=O)Cc3ccccc3)s2)s1 [Compound 15]	1200 nM	–
CC(C)(C)C(=O)OCN(C(=O)Cc1ccccc1)c1nnc(CCSCCc2nnc(N(COC(=O)C(C)(C)C)C(=O)Cc3ccccc3)s2)s1 [Compound 16]	800 nM	–
C=CCCC(=O)Nc1nnc(CCSCCc2nnc(NC(=O)CCC=C)s2)s1 [Compound 18]	8200 nM	–
CC(C(=O)Nc1nnc(CCSCCc2nnc(NC(=O)C(C)c3ccccc3)s2)s1)c1ccccc1 (stereo not drawn) [Compound 19]	1700 nM	–
CC(C(=O)Nc1nnc(CCSCCc2nnc(N)s2)s1)c1ccccc1 (stereo not drawn) [Compound 20]	2600 nM	–
O=C(Cc1ccccc1)Nc1nnc(CCCCc2nnc(NC(=O)Cc3ccccc3)s2)s1 [Compound 21, N,N′-[5,5′-(butane-1,4-diyl)-bis(1,3,4-thiadiazole-5,2-diyl)]-bis(2-phenylacetamide)]	20 nM	–
O=C(Nc1nnc(CCSCCc2nnc(NC(=O)[C@@H]3CCCN3C(=O)C(F)(F)F)s2)s1)[C@@H]1CCCN1C(=O)C(F)(F)F [Compound 22]	> 50000 nM	–
Nc1nnc(CCSCCc2nnc(NC(=O)[C@@H]3CCCN3C(=O)C(F)(F)F)s2)s1 [Compound 23]	> 50000 nM	–

Compound	IC50 [1]	IC50 [2]
CC(=O)Nc1nnc(CCSCCc2nnc(NC(=O)Cc3ccccc3)s2)s1 [Compound 25]	1500 nM	–
CC(=O)OCC(=O)Nc1nnc(CCSCCc2nnc(NC(=O)Cc3ccccc3)s2)s1 [Compound 26]	700 nM	–
O=C(Cc1ccccc1)Nc1nnc(CCSCCc2nnc(N(COC(=O)OCCCN3CCOCC3)C(=O)Cc3ccccc3)s2)s1 [Compound 27]	470 nM	–
O=C(Nc1nnc(CCCCCc2nnc(NC(=O)C(CO)c3ccccc3)s2)s1)C(CO)c1ccccc1 (stereo not drawn) [Compound 30]	2500 nM	–
COC(=O)c1cccc(NC(=O)Nc2nnc(CCSCCc3nnc(NC(=O)Nc4cccc(C(=O)OC)c4)s3)s2)c1 [Compound 31]	4300 nM	–
CC(C)[C@H](N)C(=O)Nc1nnc(CCSCCc2nnc(NC(=O)Cc3ccccc3)s2)s1 [Compound 32]	11000 nM	–
CC(C)[C@H](NC(=O)OC(C)(C)C)C(=O)Nc1nnc(CCSCCc2nnc(NC(=O)Cc3ccccc3)s2)s1 [Compound 33]	5300 nM	–
CC(C)[C@H](NC(=O)OC(C)(C)C)C(=O)Nc1nnc(CCSCCc2nnc(NC(=O)[C@@H](NC(=O)OC(C)(C)C)C(C)C)s2)s1 [Compound 34]	> 50000 nM	–
O=C(Cc1ccccc1)Nc1nnc(CCSCCc2nnc(NC(=O)[C@@H]3CCCN3C(=O)C(F)(F)F)s2)s1 [Compound 35]	3800 nM	–
O=C(Nc1nnc(CCSCCc2nnc(NC(=O)C3CCc4ccccc4C3)s2)s1)C1CCc2ccccc2C1 (stereo not drawn) [Compound 37]	> 50000 nM	–
O=C(Nc1nnc(CCSCCc2nnc(NC(=O)C3CC4CCC3C4)s2)s1)C1CC2CCC1C2 (stereo not drawn) [Compound 38]	3200 nM	–
O=C(Nc1nnc(CCSCCc2nnc(NC(=O)C3CCCO3)s2)s1)C1CCCO1 (stereo not drawn) [Compound 39]	4500 nM	–
O=C(Nc1nnc(CCSCCc2nnc(NC(=O)C3CCCC3)s2)s1)C1CCCC1 [Compound 40]	560 nM	–
O=C(Nc1nnc(CCSCCc2nnc(NC(=O)C3COc4ccccc4O3)s2)s1)C1COc2ccccc2O1 (stereo not drawn) [Compound 41]	33000 nM	–
CC(C)[C@H](NC(=O)OC(C)(C)C)C(=O)Nc1nnc(CCCCc2nnc(NC(=O)[C@@H](NC(=O)OC(C)(C)C)C(C)C)s2)s1 [Compound 42]	> 50000 nM	–
O=C(COc1ccccc1)Nc1nnc(CCCCc2nnc(NC(=O)COc3ccccc3)s2)s1 [Compound 43]	> 50000 nM	–
CC(CCc1nnc(NC(=O)Cc2ccccc2)s1)Cc1nnc(NC(=O)Cc2ccccc2)s1 (stereo not drawn) [Compound 44]	2600 nM	–
O=C(Nc1nnc(CCCCc2nnc(NC(=O)C(F)(F)F)s2)s1)C(F)(F)F [Compound 45]	> 50000 nM	–
CC(C)(C)OC(=O)N[C@@H](C(=O)Nc1nnc(CCSCCc2nnc(NC(=O)[C@H](NC(=O)OC(C)(C)C)c3ccccc3)s2)s1)c1ccccc1 [Compound 46]	16000 nM	–
N[C@@H](C(=O)Nc1nnc(CCSCCc2nnc(NC(=O)[C@H](N)c3ccccc3)s2)s1)c1ccccc1 [Compound 47]	35000 nM	–
O=C(CC1CCCCC1)Nc1nnc(CCSCCc2nnc(NC(=O)CC3CCCCC3)s2)s1 [Compound 48]	420 nM	–
C[C@H](NC(=O)OC(C)(C)C)C(=O)Nc1nnc(CCSCCc2nnc(NC(=O)[C@H](C)NC(=O)OC(C)(C)C)s2)s1 [Compound 49]	17000 nM	–

Compound	IC50 [1]	IC50 [2]
O=C(Nc1nnc(CCSCCc2nnc(NC(=O)C3Cc4ccccc4O3)s2)s1)C1Cc2ccccc2O1 (stereo not drawn) [Compound 50]	8200 nM	–
O=C(Nc1nnc(CCCCc2nnc(NC(=O)C3Cc4ccccc4O3)s2)s1)C1Cc2ccccc2O1 (stereo not drawn) [Compound 51]	1300 nM	–
O=C(Nc1nnc(CCCCc2nnc(NC(=O)C3COc4ccccc4O3)s2)s1)C1COc2ccccc2O1 (stereo not drawn) [Compound 52]	30000 nM	–
O=C(Nc1nnc(CCCCc2nnc(NC(=O)C3CCCC3)s2)s1)C1CCCC1 [Compound 53]	34000 nM	–
O=C(Nc1nnc(CCCCc2nnc(NC(=O)C3CCCO3)s2)s1)C1CCCO1 (stereo not drawn) [Compound 54]	1600 nM	–
O=C(Nc1nnc(CCCCc2nnc(NC(=O)C3CC4CCC3C4)s2)s1)C1CC2CCC1C2 (stereo not drawn) [Compound 55]	3900 nM	–
O=C(CC1CCCC1)Nc1nnc(CCSCCc2nnc(NC(=O)CC3CCCC3)s2)s1 [Compound 58]	3700 nM	–
O=C(Cn1cccn1)Nc1nnc(CCCCc2nnc(NC(=O)Cn3cccn3)s2)s1 [Compound 60]	14000 nM	–
O=C(Nc1nnc(CCCCc2nnc(NC(=O)C3(C(F)(F)F)CC3)s2)s1)C1(C(F)(F)F)CC1 [Compound 62]	19000 nM	–
CC(C)(C)OC(=O)N1CCN(C(C(=O)Nc2nnc(CCCCc3nnc(NC(=O)C(c4ccccc4)N4CCN(C(=O)OC(C)(C)C)CC4)s3)s2)c2ccccc2)CC1 (stereo not drawn) [Compound 63]	2600 nM	–
O=C1CC(C(=O)Nc2nnc(CCCCc3nnc(NC(=O)C4CC(=O)c5ccccc54)s3)s2)c2ccccc21 (stereo not drawn) [Compound 64]	230 nM	–
COC(C(=O)Nc1nnc(CCCCc2nnc(NC(=O)C(OC)c3ccccc3)s2)s1)c1ccccc1 (stereo not drawn) [Compound 65]	520 nM	–
COC(C(=O)Nc1nnc(CCSCCc2nnc(NC(=O)C(OC)c3ccccc3)s2)s1)c1ccccc1 (stereo not drawn) [Compound 67]	1800 nM	–
O=CO[C@@H](C(=O)Nc1nnc(CCCCc2nnc(NC(=O)[C@H](OC=O)c3ccccc3)s2)s1)c1ccccc1 [Compound 68]	340 nM	–
O=C(Nc1nnc(CCCCc2nnc(NC(=O)C(O)Cc3ccccc3)s2)s1)C(O)Cc1ccccc1 (stereo not drawn) [Compound 69]	330 nM	–
CC(C)(C)OC(=O)N1CCN(C(C(=O)Nc2nnc(CCSCCc3nnc(NC(=O)Cc4ccccc4)s3)s2)c2ccccc2)CC1 (stereo not drawn) [Compound 70]	3400 nM	–
CC(=O)O[C@H](C(=O)Nc1nnc(CCSCCc2nnc(NC(=O)[C@@H](OC(C)=O)c3ccccc3)s2)s1)c1ccccc1 [Compound 71]	6900 nM	–
O=C(Cc1ccccc1)Nc1nnc(CCCc2nnc(NC(=O)Cc3ccccc3)s2)s1 [Compound 72, N,N′-[5,5′-(propane-1,3-diyl)-bis(1,3,4-thiadiazole-5,2-diyl)]-bis(2-phenylacetamide)]	470 nM	–
O=C(Nc1nnc(CCCCc2nnc(NC(=O)C(c3ccccc3)N3CCNCC3)s2)s1)C(c1ccccc1)N1CCNCC1 (stereo not drawn) [Compound 77]	34000 nM	–
O=C(Cc1ccccc1)Nc1nnc(CCSCCc2nnc(NC(=O)C(c3ccccc3)N3CCNCC3)s2)s1 (stereo not drawn) [Compound 78]	10000 nM	–
O=C(Nc1nnc(CCSCCc2nnc(NC(=O)C(c3ccccc3)N3CCNCC3)s2)s1)C(c1ccccc1)N1CCNCC1 (stereo not drawn) [Compound 79]	2000 nM	–
O=C(Nc1nnc(CCCCc2nnc(NC(=O)[C@H](O)c3ccccc3)s2)s1)[C@H](O)c1ccccc1 [Compound 80]	1300 nM	–
